These results are taken from paper PMC12192976, “Unique Structural Features Relate to Evolutionary Adaptation of Cytochrome P450 in the Abyssal Zone” (International Journal of Molecular Sciences, 2025).

One may read the Km as the concentration of substrate that gives half-maximal velocity. In general, kcat refers to the maximal rate divided by the concentration of active sites.

The target of assay [1] is T1, C. armatus CYP51 (Coryphaenoides armatus, UniProt Z9AQN8BZD8).
Method: (§1) The samples were preincubated for 3 min at 37 °C in a shaking water bath, and the reaction was initiated by the addition of 100 μM NADPH and stopped by the extraction of sterols with ethyl acetate. The extracted sterols were dried, dissolved in 100 µL of methanol, and the products were analyzed by reversed-phase HPLC equipped with a β-RAM detector (INUS Systems) using a Nova-Pak 3.9 mm × 150 mm (4 μm) octadecylsilane (C18) HPLC column. The products were separated with an isocratic mobile phase composed of acetonitrile and methanol (4:1 (v/v)) at a flow rate of 0.75 mL/min [9]. Michaelis–Menten parameters were calculated using GraphPad Prism. The kcat and Km values for each reaction were determined by fitting the data to a Michaelis–Menten hyperbola, with the reaction rates (nmol product formed/nmol P450/min) being plotted versus total substrate concentration.
The target in assay [2] is human CYP51. The arrangement: method as in PMID 27313059. The note with it: read-out: apparent dissociation constant (Kd), azole ligand; cited from earlier work.
Assay [3] concerns the target T1, C. armatus CYP51. Kind of assay: Spectral titration with azole-based ligands (type II response).
Method: Equal amounts of the HPCD solution were added to the reference cuvette to correct for the solvent-induced spectral perturbations, and the difference spectra were taken in the wavelength range of 350–500 nm. […] Titrations with azole-based compounds were carried out at 0.5 µM P450 concentration in 5 cm optical path length cuvettes. Aliquots of 0.1 mM compounds dissolved in dimethyl sulfoxide (DMSO) were added to the sample cuvette, with each titration step being 0.1 µM. At each step, the corresponding volume of DMSO was added to the reference cuvette. The apparent spectral dissociation constants (Kd) were calculated in GraphPad Prism software, as described, for human CYP51 [22].
Assay [4] relates to human CYP51. Details: method as in PMID 27313059. The note with it: cited from earlier work.
The target in assay [5] is T1, C. armatus CYP51. Kind of assay: Inhibition of reconstituted lanosterol 14α-demethylation, 1 h reaction. As to conditions: enzyme/inhibitor/substrate 1:50:50, 60 min.
Method: as §1
In assay [6] the target is T1, C. armatus CYP51. Kind of assay: Stabilization of C. armatus CYP51 by TMAO (CO-binding spectra after overnight storage). How it is done: Absorption spectra (270–700 nm) were recorded at 22 °C using a dual-beam Shimadzu UV-2600i spectrophotometer and UVProbe2.71 software. The P450 concentration was determined from the Soret band absorbance in the absolute spectrum, with the extinction coefficient 117 mM^−1 cm^−1 for the low-spin ferric form or 91 mM^−1 cm^−1 for the reduced (ferrous) carbon monoxide (CO) complex in the difference spectra. The spin state of the P450 samples was estimated from the absolute spectra using the ratio (ΔA393–470/ΔA417–470), with values of 0.35 and 2.0 corresponding to 100% low- and 100% high-spin iron, respectively.
After data collection the crystals were dissolved in phosphate buffered saline (PBS, Gibco, Billings, MT, USA). UV-visible absolute absorption spectra (270–700 nm) were recorded at room temperature using a NanoVue,4282 single beam spectrophotometer (CE Healthcare, Cardiff, UK) (Figure S4A). CO-binding difference absorption spectra (400–500 nm) were recorded using a dual-beam Shimadzu UV-2600i spectrophotometer as follows. The CO gas was bubbled through the protein solution, which was then divided into two cuvettes serving as a blank and standard, respectively. The baseline was taken, and a few crystals of […] were added to the sample cuvette (Figure S4B). […]

For assay [7], the target named is T1, C. armatus CYP51. Description: Spectral titration of C. armatus CYP51 with sterol substrates (type I response). As to conditions: P450 2 µM; for Kd: read-out: Kd (apparent spectral dissociation constant, sterol substrate), titration step 0.25 µM; for Spin State Transition in the Heme Iron: sterol 0.25−3 µM, 22 °C.
Method: Equal amounts of the HPCD solution were added to the reference cuvette to correct for the solvent-induced spectral perturbations, and the difference spectra were taken in the wavelength range of 350–500 nm. […] The apparent spectral dissociation constants (Kd) were calculated in GraphPad Prism software, as described, for human CYP51 [22].
In assay [8] the target is T1, C. armatus CYP51. Kind of assay: Reconstituted sterol 14α-demethylation, steady-state (Michaelis–Menten) kinetics. The note with it: 0.25 µM P450, 1 µM CPR, 1 min reaction, 37 °C; for kcat: sterol 3.12−37.5 µM.
Method: as §1
Setting [9] is: read-out: apparent dissociation constant (Kd), azole ligand, P450 0.5 µM, titration step 0.1 µM.

SMILES strings stand for the structures.

T1 sequence (Z9AQN8BZD8 6-449 limits assumed): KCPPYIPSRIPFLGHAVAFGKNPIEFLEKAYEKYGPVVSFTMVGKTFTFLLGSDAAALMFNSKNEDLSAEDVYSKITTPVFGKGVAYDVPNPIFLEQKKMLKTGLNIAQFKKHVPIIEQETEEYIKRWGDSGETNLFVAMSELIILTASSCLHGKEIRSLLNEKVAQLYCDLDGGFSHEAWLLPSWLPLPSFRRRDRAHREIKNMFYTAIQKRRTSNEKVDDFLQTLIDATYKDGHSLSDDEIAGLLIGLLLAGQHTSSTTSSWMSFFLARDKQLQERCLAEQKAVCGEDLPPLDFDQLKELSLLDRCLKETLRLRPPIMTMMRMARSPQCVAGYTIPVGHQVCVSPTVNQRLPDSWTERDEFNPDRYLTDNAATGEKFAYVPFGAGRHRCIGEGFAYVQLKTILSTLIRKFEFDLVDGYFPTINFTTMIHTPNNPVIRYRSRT

As to `O=C(N[C@@H](Cn1ccnc1)c1ccc(-c2ccc(F)cc2)cc1F)c1ccc(-c2nnc(-c3ccccc3)o2)cc1` [VFV, (R)-N-(1-(3,4′-difluorobiphenyl-4-yl)-2-(1H-imidazol-1-yl)ethyl)-4-(5-phenyl-1,3,4-oxadiazol-2-yl)benzamide], the “inhibition of CYP51 activity” value on C. armatus CYP51 [1] is recorded as 93%; in the assay on human CYP51 [4] (human CYP51, enzyme/inhibitor/substrate 1:50:50, 60 min), 64%. The Kd is 90 nM at human CYP51 [2] and 20 nM at C. armatus CYP51 [3].

With `N#Cc1ccc(COc2ccc(C#Cc3ccc(C(F)(F)[C@](O)(Cn4cnnn4)c4ccc(F)cc4F)nc3)cc2)cc1` [VT-1598], the “inhibitory effect on the C. armatus CYP51 activity (in words)” value (from here on “inhibitory effect”) at C. armatus CYP51 [5] is listed as “did not have any inhibitory effect”.

As to `C[C@@H](c1ncncc1F)[C@](O)(Cn1cncn1)c1ccc(F)cc1F` [voriconazole], the Kd on human CYP51 [2] was 2530 nM; at C. armatus CYP51 [3] (setting [9]) it was 610 nM. The “inhibitory effect” value on C. armatus CYP51 [5] is given as “did not have any inhibitory effect”.

Consider `C[N+](C)(C)[O-]` [TMAO, Trimethylamine oxide], for which, at C. armatus CYP51 [6], the “spectral response in the C. armatus CYP51 heme iron (in words)” value was “does not cause any spectral response”. In addition, the “P450 recovery after overnight incubation (CO-binding spectra)” value at C. armatus CYP51 [6] (10 mM TMAO, overnight storage at 4 °C in PBS) is reported as 90%.

Take `CCC(C)n1ncn(-c2ccc(N3CCN(c4ccc(OCC5COC(Cn6cncn6)(c6ccc(Cl)cc6Cl)O5)cc4)CC3)cc2)c1=O` (stereo not shown) [itraconazole]: the figures for the Kd at human CYP51 [2] and on C. armatus CYP51 [3] (setting [9]) were 1290 nM and 620 nM, respectively. Moreover, at C. armatus CYP51 [5], the “inhibitory effect” value is given as “did not have any inhibitory effect”.

For the molecule `C=C(CC[C@@H](C)C1CC[C@@]2(C)C3=C(CC[C@]12C)[C@@]1(C)CC[C@H](O)C(C)(C)C1CC3)C(C)C` (stereo partly shown), on C. armatus CYP51 [7], the Kd came out at 1020 ± 40 nM and the “Spin State Transition in the Heme Iron” value is recorded as 27%. For the same molecule, at C. armatus CYP51 [8], the Km is 13 ± 0.9 µM and the kcat came to 61.9 ± 2.3 min⁻¹.

In the case of `C[C@@H](c1nc(-c2ccc(C#N)cc2)cs1)[C@](O)(Cn1cncn1)c1cc(F)ccc1F` [isavuconazole], the “inhibitory effect” value against C. armatus CYP51 [5] is recorded as “did not have any inhibitory effect”.

With `CC(=O)N1CCN(c2ccc(OCC3COC(Cn4ccnc4)(c4ccc(Cl)cc4Cl)O3)cc2)CC1` (stereo not shown) [ketoconazole], the Kd was 70 nM at human CYP51 [2] and 10 nM on C. armatus CYP51 [3] (setting [9]). Also, in the assay on human CYP51 [4] (human CYP51, 50-fold molar excess of inhibitor, 1 h reaction), the “lanosterol converted in presence of inhibitor” value is on record as 100%.

Consider `CC[C@@H]([C@H](C)O)n1ncn(-c2ccc(N3CCN(c4ccc(OC[C@@H]5CO[C@@](Cn6cncn6)(c6ccc(F)cc6F)C5)cc4)CC3)cc2)c1=O` [posaconazole], for which, at C. armatus CYP51 [5], the “inhibitory effect” value is given as “did not have any inhibitory effect”.

On to `C=C(CC[C@@H](C)[C@H]1CC[C@@]2(C)C3=C(CC[C@]12C)[C@@]1(C)CC[C@H](O)[C@@H](C)[C@@H]1CC3)C(C)C` [Obtusifoliol, obtusifoliol], for which, on C. armatus CYP51 [7], the Kd stood at 560 ± 30 nM and the “Spin State Transition in the Heme Iron” value was found to be 13%. At C. armatus CYP51 [8], the Michaelis-Menten constant (Km) is 7.9 ± 0.6 µM and the catalytic constant (kcat) worked out at 51.9 ± 1.8 min⁻¹.

Consider `O[C@@](Cn1cnnn1)(c1ccc(F)cc1F)C(F)(F)c1ccc(-c2ccc(OCC(F)(F)F)cc2)cn1` [oteseconazole], for which, at C. armatus CYP51 [5], the “inhibitory effect” value was “did not have any inhibitory effect”.

As to `CC(C)=CCC[C@@H](C)[C@H]1CC[C@@]2(C)C3=C(CC[C@]12C)[C@@]1(C)CC[C@H](O)C(C)(C)[C@@H]1CC3` [Lanosterol], on C. armatus CYP51 [7], the Kd worked out at 770 ± 40 nM and the “Spin State Transition in the Heme Iron” value is on record as 22%. Moreover, on C. armatus CYP51 [8], the Km was found to be 8.1 ± 1.1 µM and the kcat was 47.8 ± 1.9 min⁻¹.
